Experimental data taken from the supplement of paper PMC8612539.
≈ marks a conversion by molar mass, not a printed value.

Test system: Escherichia coli
Assay: minimum inhibitory concentration (MIC)
Experimental: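 Broth microdilution MIC (Sensititre BOPO7F bovine plate, CLSI methods) of 19 antimicrobials against field isolates of P. multocida, M. haemolytica, H. somni (deep nasopharyngeal swabs) and E. coli, Enterococcus spp. (rectal swabs) from weaned dairy heifers. Incubation 16-24 h at 35 C. MIC is the lowest concentration preventing visible growth. Values with <= or > lie at the tested range limits. Trimethoprim-sulfamethoxazole is given as the trimethoprim component of a 1:19 mixture.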

CC[C@H]1OC(=O)C[C@@H](O)[C@H](C)[C@@H](O[C@@H]2O[C@H](C)[C@@H](O)[C@H](N(C)C)[C@H]2O)[C@@H](CCN2CCCCC2)C[C@@H](C)C(=O)/C=C/C(C)=C/[C@@H]1CN1CCCCC1 [Tildipirosin]
Settings | minimum inhibitory concentration [µg/mL]
isolate (source animal id): 8 | 4 (≈ 5.45 µM)
isolate (source animal id): 9 | 16 (≈ 21.8 µM)
isolate (source animal id): 10 | 8 (≈ 10.9 µM)
isolate (source animal id): 11 | 4 (≈ 5.45 µM)
isolate (source animal id): 12 | 4 (≈ 5.45 µM)
isolate (source animal id): 13 | 4 (≈ 5.45 µM)
isolate (source animal id): 14 | 4 (≈ 5.45 µM)
isolate (source animal id): 15 | 4 (≈ 5.45 µM)
isolate (source animal id): 16 | 4 (≈ 5.45 µM)
isolate (source animal id): 98 | 4 (≈ 5.45 µM)
isolate (source animal id): 99 | 4 (≈ 5.45 µM)
isolate (source animal id): 100 | 2 (≈ 2.72 µM)
isolate (source animal id): 101 | 4 (≈ 5.45 µM)
isolate (source animal id): 102 | 4 (≈ 5.45 µM)
isolate (source animal id): 103 | 4 (≈ 5.45 µM)
isolate (source animal id): 104 | 4 (≈ 5.45 µM)
isolate (source animal id): 105 | 4 (≈ 5.45 µM)
isolate (source animal id): 106 | 16 (≈ 21.8 µM)
isolate (source animal id): 107 | 8 (≈ 10.9 µM)
isolate (source animal id): 108 | 4 (≈ 5.45 µM)
isolate (source animal id): 109 | 4 (≈ 5.45 µM)
isolate (source animal id): 110 | 4 (≈ 5.45 µM)
isolate (source animal id): 111 | 4 (≈ 5.45 µM)
isolate (source animal id): 112 | 4 (≈ 5.45 µM)
isolate (source animal id): 113 | 4 (≈ 5.45 µM)
isolate (source animal id): 114 | 4 (≈ 5.45 µM)
isolate (source animal id): 115 | 8 (≈ 10.9 µM)
isolate (source animal id): 116 | 4 (≈ 5.45 µM)
isolate (source animal id): 117 | > 16
isolate (source animal id): 118 | 8 (≈ 10.9 µM)
isolate (source animal id): 119 | 8 (≈ 10.9 µM)
isolate (source animal id): 120 | 4 (≈ 5.45 µM)
isolate (source animal id): 121 | 4 (≈ 5.45 µM)
isolate (source animal id): 122 | 4 (≈ 5.45 µM)
isolate (source animal id): 123 | 4 (≈ 5.45 µM)
isolate (source animal id): 124 | 2 (≈ 2.72 µM)
isolate (source animal id): 125 | ≤ 1
isolate (source animal id): 126 | 4 (≈ 5.45 µM)
isolate (source animal id): 127 | 8 (≈ 10.9 µM)
isolate (source animal id): 128 | 4 (≈ 5.45 µM)
isolate (source animal id): 129 | 4 (≈ 5.45 µM)
isolate (source animal id): 130 | 4 (≈ 5.45 µM)
isolate (source animal id): 131 | 2 (≈ 2.72 µM)
isolate (source animal id): 132 | 4 (≈ 5.45 µM)
isolate (source animal id): 133 | 4 (≈ 5.45 µM)
isolate (source animal id): 134 | 4 (≈ 5.45 µM)
isolate (source animal id): 135 | 4 (≈ 5.45 µM)
isolate (source animal id): 136 | 4 (≈ 5.45 µM)
isolate (source animal id): 137 | 4 (≈ 5.45 µM)
isolate (source animal id): 138 | 4 (≈ 5.45 µM)
isolate (source animal id): 139 | 2 (≈ 2.72 µM)
isolate (source animal id): 140 | 4 (≈ 5.45 µM)
isolate (source animal id): 141 | 4 (≈ 5.45 µM)
isolate (source animal id): 142 | 4 (≈ 5.45 µM)
isolate (source animal id): 143 | 8 (≈ 10.9 µM)
isolate (source animal id): 144 | 4 (≈ 5.45 µM)
isolate (source animal id): 145 | 4 (≈ 5.45 µM)
isolate (source animal id): 146 | 8 (≈ 10.9 µM)
isolate (source animal id): 147 | 2 (≈ 2.72 µM)
isolate (source animal id): 148 | 4 (≈ 5.45 µM)
isolate (source animal id): 149 | 4 (≈ 5.45 µM)
isolate (source animal id): 150 | 4 (≈ 5.45 µM)
isolate (source animal id): 151 | 4 (≈ 5.45 µM)
isolate (source animal id): 152 | 4 (≈ 5.45 µM)
isolate (source animal id): 153 | 4 (≈ 5.45 µM)
isolate (source animal id): 154 | 4 (≈ 5.45 µM)
isolate (source animal id): 155 | 4 (≈ 5.45 µM)
isolate (source animal id): 156 | 4 (≈ 5.45 µM)
isolate (source animal id): 157 | 4 (≈ 5.45 µM)
isolate (source animal id): 158 | 4 (≈ 5.45 µM)
isolate (source animal id): 159 | 4 (≈ 5.45 µM)
isolate (source animal id): 160 | 4 (≈ 5.45 µM)
isolate (source animal id): 161 | 2 (≈ 2.72 µM)
isolate (source animal id): 162 | 4 (≈ 5.45 µM)
isolate (source animal id): 163 | 4 (≈ 5.45 µM)
isolate (source animal id): 164 | 4 (≈ 5.45 µM)
isolate (source animal id): 165 | 4 (≈ 5.45 µM)
isolate (source animal id): 166 | 4 (≈ 5.45 µM)
isolate (source animal id): 167 | 8 (≈ 10.9 µM)
isolate (source animal id): 168 | 4 (≈ 5.45 µM)
isolate (source animal id): 169 | 4 (≈ 5.45 µM)
isolate (source animal id): 170 | 4 (≈ 5.45 µM)
isolate (source animal id): 171 | 4 (≈ 5.45 µM)
isolate (source animal id): 172 | 4 (≈ 5.45 µM)
isolate (source animal id): 173 | 4 (≈ 5.45 µM)
isolate (source animal id): 174 | 4 (≈ 5.45 µM)
isolate (source animal id): 175 | 8 (≈ 10.9 µM)
isolate (source animal id): 176 | 8 (≈ 10.9 µM)
isolate (source animal id): 177 | 4 (≈ 5.45 µM)
isolate (source animal id): 178 | 4 (≈ 5.45 µM)
isolate (source animal id): 179 | 4 (≈ 5.45 µM)
isolate (source animal id): 180 | 4 (≈ 5.45 µM)
isolate (source animal id): 181 | 16 (≈ 21.8 µM)
isolate (source animal id): 182 | 8 (≈ 10.9 µM)
isolate (source animal id): 183 | 4 (≈ 5.45 µM)
isolate (source animal id): 184 | 8 (≈ 10.9 µM)
isolate (source animal id): 185 | 4 (≈ 5.45 µM)
isolate (source animal id): 186 | 4 (≈ 5.45 µM)
isolate (source animal id): 187 | 2 (≈ 2.72 µM)
isolate (source animal id): 188 | 4 (≈ 5.45 µM)

CC[C@H]1OC(=O)C[C@@H](O)[C@H](C)[C@@H](O[C@@H]2O[C@H](C)[C@@H](O)[C@H](N(C)C)[C@H]2O)[C@@H](CCN2C[C@H](C)C[C@H](C)C2)C[C@@H](C)C(=O)/C=C/C(C)=C/[C@@H]1CO[C@@H]1O[C@H](C)[C@@H](O)[C@@H](OC)[C@H]1OC [Tilmicosin]
Settings | minimum inhibitory concentration [µg/mL]
isolate (source animal id): 8 | > 16
isolate (source animal id): 9 | > 16
isolate (source animal id): 10 | > 16
isolate (source animal id): 11 | > 16
isolate (source animal id): 12 | > 16
isolate (source animal id): 13 | > 16
isolate (source animal id): 14 | > 16
isolate (source animal id): 15 | > 16
isolate (source animal id): 16 | > 16
isolate (source animal id): 98 | > 16
isolate (source animal id): 99 | > 16
isolate (source animal id): 100 | > 16
isolate (source animal id): 101 | > 16
isolate (source animal id): 102 | > 16
isolate (source animal id): 103 | > 16
isolate (source animal id): 104 | > 16
isolate (source animal id): 105 | > 16
isolate (source animal id): 106 | > 16
isolate (source animal id): 107 | > 16
isolate (source animal id): 108 | > 16
isolate (source animal id): 109 | > 16
isolate (source animal id): 110 | > 16
isolate (source animal id): 111 | > 16
isolate (source animal id): 112 | > 16
isolate (source animal id): 113 | > 16
isolate (source animal id): 114 | > 16
isolate (source animal id): 115 | > 16
isolate (source animal id): 116 | > 16
isolate (source animal id): 117 | > 16
isolate (source animal id): 118 | > 16
isolate (source animal id): 119 | > 16
isolate (source animal id): 120 | > 16
isolate (source animal id): 121 | > 16
isolate (source animal id): 122 | > 16
isolate (source animal id): 123 | > 16
isolate (source animal id): 124 | > 16
isolate (source animal id): 125 | 16 (≈ 18.4 µM)
isolate (source animal id): 126 | > 16
isolate (source animal id): 127 | > 16
isolate (source animal id): 128 | > 16
isolate (source animal id): 129 | > 16
isolate (source animal id): 130 | > 16
isolate (source animal id): 131 | > 16
isolate (source animal id): 132 | > 16
isolate (source animal id): 133 | > 16
isolate (source animal id): 134 | > 16
isolate (source animal id): 135 | > 16
isolate (source animal id): 136 | > 16
isolate (source animal id): 137 | > 16
isolate (source animal id): 138 | > 16
isolate (source animal id): 139 | > 16
isolate (source animal id): 140 | > 16
isolate (source animal id): 141 | > 16
isolate (source animal id): 142 | > 16
isolate (source animal id): 143 | > 16
isolate (source animal id): 144 | > 16
isolate (source animal id): 145 | > 16
isolate (source animal id): 146 | > 16
isolate (source animal id): 147 | > 16
isolate (source animal id): 148 | > 16
isolate (source animal id): 149 | > 16
isolate (source animal id): 150 | > 16
isolate (source animal id): 151 | > 16
isolate (source animal id): 152 | > 16
isolate (source animal id): 153 | > 16
isolate (source animal id): 154 | > 16
isolate (source animal id): 155 | > 16
isolate (source animal id): 156 | > 16
isolate (source animal id): 157 | > 16
isolate (source animal id): 158 | > 16
isolate (source animal id): 159 | > 16
isolate (source animal id): 160 | > 16
isolate (source animal id): 161 | > 16
isolate (source animal id): 162 | > 16
isolate (source animal id): 163 | > 16
isolate (source animal id): 164 | > 16
isolate (source animal id): 165 | > 16
isolate (source animal id): 166 | > 16
isolate (source animal id): 167 | > 16
isolate (source animal id): 168 | > 16
isolate (source animal id): 169 | > 16
isolate (source animal id): 170 | > 16
isolate (source animal id): 171 | > 16
isolate (source animal id): 172 | > 16
isolate (source animal id): 173 | > 16
isolate (source animal id): 174 | > 16
isolate (source animal id): 175 | > 16
isolate (source animal id): 176 | > 16
isolate (source animal id): 177 | > 16
isolate (source animal id): 178 | > 16
isolate (source animal id): 179 | > 16
isolate (source animal id): 180 | > 16
isolate (source animal id): 181 | > 16
isolate (source animal id): 182 | > 16
isolate (source animal id): 183 | > 16
isolate (source animal id): 184 | > 16
isolate (source animal id): 185 | > 16
isolate (source animal id): 186 | > 16
isolate (source animal id): 187 | > 16
isolate (source animal id): 188 | > 16
